# From US20160022632A1, “COMBINATION OF CANAGLIFLOZIN AND PROBENECID FOR THE TREAMENT OF HYPERURICEMIA” (JANSSEN PHARMACEUTICA NV, priority 2013, published 2016)
# What was measured:
# [1] = 24-hour urinary uric acid excretion, open-label fixed-sequence clinical study (NCT01428284); assay type: in vivo, human; conditions: for Increase of mean urinary urate excretion compared to baseline: canagliflozin alone; for Urine urate excretion, Mean / Urine urate excretion, Mean Change from Day−1: healthy subjects, 24-hour urine, canagliflozin 300 mg once daily from Day 1
# Source text: (§1) A single-center, open-label, fixed-sequence study to assess the effects of multiple-dose probenecid on multiple-dose of canagliflozin, in healthy subjects, was completed as described below (study NCT01428284) on clinicaltrials.gov registry website). The study consisted of 3 phases: (1) a Screening Phase of approximately 19 days (Day −21 to Day −3), (2) an Open-label Treatment Phase of 20 days (Day −2 to Day 18), and (3) a Follow-up phase (7 to 10 days after discharge on Day 18). The total duration of the study was approximately 49 days.
# (§2) Subjects with history of (or current) any of the following medical conditions were excluded: (a) Acute or chronic renal insufficiency (eGFR below 90 mL/min/1.73 m^2); (b) Kidney or bladder stones (nephrolithiasis); (c) Hyperuricosuria (>800 mg/day), or gout; and/or (d) Hyperuricemia (>6.8 mg/dL, 404 μmol/L). Reasons for subject withdrawal from the study could include the following: (a) Lost to follow-up; (b) Withdrawal of consent; (c) Withdrawal of consent for pharmacogenomic research (Part 1); (d) Subject was not in compliance with requirements of the study and prohibitions and restrictions; and/or (e) A subject could be discontinued from study treatment (final assessments were to be obtained) if the investigator believed that for safety reasons (eg, adverse event) it was in the best interest of the subject to stop study treatment.
# (§3) All study drugs were taken between 7:30 and 9:30 a.m. with 240 mL of noncarbonated water. Study drug was swallowed whole and not chewed, divided, dissolved or crushed. […] For each subject, on days when both canagliflozin and probenecid were administered, both doses were administered at approximately the same time.
# (§4) Canagliflozin was administered as a single 300-mg tablet on Days 1 to Day 17. Probenecid was administered b.i.d. as one 500-mg tablet from Day 15 to Day 17. On Day 14 and Day 17, subjects received study drug under fasted conditions, and standardized lunch approximately 4 hours after study drug administration. On all other study days, subjects received canagliflozin and/or probenecid 1 hour before they received a standardized meal. The study diet was standardized by the site dietician in order to minimize the effect on uric acid levels. Subjects were also advised not to consume high purine-enriched foods from screening to completion of the study.
# (§5) All laboratory testing was conducted by a licensed clinical laboratory (Physicians Reference Laboratory [PRL]), 7800 West 110th Street, Overland Park, Kans. 66210-2304). Clinical laboratory tests included, among others:
# (b) Urinary uric acid excretion: A 24-hour total urine was collected at the time points specified in the Time and Events Schedule of the study protocol. The samples were mixed thoroughly and stored between 2° C. and 8° C. until shipment.
# (§6) Laboratory data were summarized by type of laboratory test. Normal reference ranges and abnormal results were used in the summary of laboratory data. Descriptive statistics were calculated for each laboratory analyte at baseline, Day 18, and end-of-study.
# Table 2, below, lists mean urine uric acid excretion and calculated mean changes through the course of the study. FIG. 2 illustrates said mean uric acid excretion (±standard deviation) as a function of study day.
# [2] = Fasting serum urate levels, open-label fixed-sequence clinical study (NCT01428284); assay type: in vivo, human; conditions: for Decrease of mean serum urate level from baseline: canagliflozin alone; for Serum urate level, Mean / Serum urate level, Mean Decrease: healthy subjects, canagliflozin 300 mg once daily from Day 1
# Source text: as §1, §2, §3, §4, §5
# (a) Serum chemistry: glucose, creatinine, blood urea nitrogen (BUN), total protein, total bilirubin, phosphate, albumin, calcium, fasting serum uric acid, sodium, potassium, chloride, magnesium, lactic acid dehydrogenase, alkaline phosphatase, alanine transaminase, aspartate transaminase, gamma-glutamyltransferase, bicarbonate, creatine phosphokinase, total cholesterol (screening only), and triglycerides (screening only); and
# as §6
# Table 1, below lists mean serum urate levels and calculated mean decrease through the course of the study. […] FIG. 1 illustrates said mean serum urate levels (±standard deviation) as a function of study day.
# [3] = cited from earlier work
smiles,measurement,setting,value
Cc1ccc([C@@H]2O[C@H](CO)[C@@H](O)[C@H](O)[C@H]2O)cc1Cc1ccc(-c2ccc(F)cc2)s1 [canagliflozin],Increase of mean urinary urate excretion compared to baseline,[1]; Day 1,approximately 19%
same,Increase of mean urinary urate excretion compared to baseline,[1]; Day 2,~6%
same,Increase of mean urinary urate excretion compared to baseline,[1]; Day 13,~1%
same,"Urine urate excretion, Mean",[1]; Day 1,5.068 mmol/day
same,"Urine urate excretion, Mean Change from Day−1",[1]; Day 1,0.796 mmol/day
same,"Urine urate excretion, Mean",[1]; Day 2,4.544 mmol/day
same,"Urine urate excretion, Mean Change from Day−1",[1]; Day 2,0.273 mmol/day
same,"Urine urate excretion, Mean",[1]; Day 13,4.319 mmol/day
same,"Urine urate excretion, Mean Change from Day−1",[1]; Day 13,0.048 mmol/day
same,"Urine urate excretion, Mean",[1]; Day 14,4.208 mmol/day
same,"Urine urate excretion, Mean Change from Day−1",[1]; Day 14,-0.064 mmol/day
same,Decrease of mean serum urate level from baseline,[2]; Day 2,approximately 19%
same,Decrease of mean serum urate level from baseline,[2]; Day 3,~24%
same,Decrease of mean serum urate level from baseline,[2]; Day 14,~23%
same,"Serum urate level, Mean",[2]; Day 1,293.151 µmol/L
same,"Serum urate level, Mean Decrease",[2]; Day 1,-5.523 µmol/L
same,"Serum urate level, Mean",[2]; Day 2,241.580 µmol/L
same,"Serum urate level, Mean Decrease",[2]; Day 2,-57.650 µmol/L
same,"Serum urate level, Mean",[2]; Day 3,228.769 µmol/L
same,"Serum urate level, Mean Decrease",[2]; Day 3,-70.461 µmol/L
same,"Serum urate level, Mean",[2]; Day 14,229.684 µmol/L
same,"Serum urate level, Mean Decrease",[2]; Day 14,-69.546 µmol/L
Oc1ncnc2[nH]ncc12 [Allopurinol],Patients with side-effects,[3],up to 20%
